In patent US5703093A, “Compounds and methods for the treatment of cardiovascular, inflammatory and immune disorders” (Cytomed, Inc., priority 1995, dated 1997):
Several values for one entry are separate records, joined by “and”; a condition that tells them apart may be missing. Equal entries are not always repeated.

Key:
[1] = system: whole blood 5-lipoxygenase (LTB4); assay: Ex-vivo mouse whole blood 5-lipoxygenase evaluation (ex vivo LTB4); type: in vivo; details: 3 mg/k iv
Protocol: Ex-vivo mouse whole blood 5-lipoxygenase evaluation
CD-1 female mice, weighing 18-25 grams, and CD female rats, weighing 150-230 grams, were obtained from Charles River Labs. Test compounds were dissolved in 0.5% DMSO in 0.9% NaCl for administration in mice (0.5 mg/ml) and in an alcohol vehicle (2% benzyl alcohol, 1% ethanol, 40% PEG 300, 10% propylene glycol, 47% of 5% dextrose and 3.5% pluronic F-68 in DiH2 O) for use in rats (5 mg/ml). […] Heparinized whole blood (0.3 ml) was added into 1.5 ml Eppendorf centrifuge tube containing […] of 2 mM calcium ionophore A23187 (the final concentration of A23187 was […]). The sample was incubated for 30 minutes in a water bath at 37° C., and then centrifuged for 2 minutes. The plasma was diluted (x120) and assayed for LTB4 using EIA.

[2] = system: Leukotriene B4 Production in Ionophore-stimulated human whole blood; assay: Inhibition of leukotriene B4 production in ionophore-stimulated human whole blood (HWB); type: cell-based; details: A23187-stimulated, LTB4 by EIA, repeat determinations
Protocol: Another biological assay used to evaluate the ability of a compound to inhibit the enzyme 5-lipoxygenase is based on the classic pharmacological model of inflammation induced by inhibition of LTB4 from ionophore stimulated human whole blood.
Inhibition of Leukotriene B4 Production in Ionophore-stimulated human whole blood
Human blood was drawn into heparinized blood collection tubes, and aliquoted in 1 ml portions into 1.5 ml microfuge tubes. Test compound ([…]) of varying concentrations, dissolved in DMSO, was added to the blood sample and incubated for 15 minutes at 37° C. Calcium ionophore ([…], A23187) in DMSO was added to a final concentration of […], and the samples were incubated for 30 minutes at 37° C. Samples are then centrifuged at 1100×g (2500 rpm, H1000B rotor, in a Sorvall centrifuge) for 10 minutes at 4° C. Supernatant ([…]) was transferred into a 1.5 ml microfuge tube, […] of cold methanol added, and proteins precipitated on ice for 30 minutes. The samples were centrifuged at 110×g for 10 minutes at 4° C., and the supernatant assayed for LTB4 using a commercially available EIA kit (Cayman Chemical) according to manufacturer's specifications.

[3] = system: whole blood 5-lipoxygenase (LTB4); assay: Ex-vivo rat whole blood 5-lipoxygenase evaluation (ex vivo LTB4); type: in vivo
[4] = target: T1, Cytosol 5-Lipoxygenase of Rat Basophile Leukemia Cells (Rattus norvegicus, UniProt P12527); assay: Effect on cytosol 5-lipoxygenase of rat basophile leukemia (RBL-2H3) cells; type: biochemical; details: RBL-2H3 cytosol preparation, [14C]arachidonic acid; repeat determinations
T1 construct: The supernatant was then removed and stored in aliquots; endogenous in cells; host or cells: RBL-2H3 (rat basophilic leukemia) cells, sonicate, 20,000 x g supernatant
T1 sequence (P12527 1-673): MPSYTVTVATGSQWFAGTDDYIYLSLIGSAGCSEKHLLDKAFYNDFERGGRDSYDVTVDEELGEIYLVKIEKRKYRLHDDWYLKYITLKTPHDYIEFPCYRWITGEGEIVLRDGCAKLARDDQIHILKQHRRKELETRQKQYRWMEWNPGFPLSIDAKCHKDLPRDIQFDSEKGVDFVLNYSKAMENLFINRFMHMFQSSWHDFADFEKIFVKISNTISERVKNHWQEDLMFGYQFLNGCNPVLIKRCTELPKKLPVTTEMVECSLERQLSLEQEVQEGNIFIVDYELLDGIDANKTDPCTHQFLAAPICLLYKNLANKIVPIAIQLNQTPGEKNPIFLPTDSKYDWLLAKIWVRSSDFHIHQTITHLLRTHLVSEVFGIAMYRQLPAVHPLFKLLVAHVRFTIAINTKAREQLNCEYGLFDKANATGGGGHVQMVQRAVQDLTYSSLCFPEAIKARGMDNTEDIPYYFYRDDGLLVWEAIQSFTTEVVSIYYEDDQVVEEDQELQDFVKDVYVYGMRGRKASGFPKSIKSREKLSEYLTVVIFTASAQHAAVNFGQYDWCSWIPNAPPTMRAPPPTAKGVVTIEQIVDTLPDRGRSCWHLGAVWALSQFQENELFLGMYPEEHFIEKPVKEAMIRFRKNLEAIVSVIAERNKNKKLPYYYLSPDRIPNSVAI
Protocol: A wide variety of biological assays have also been used to evaluate the ability of a compound to inhibit the enzyme 5-lipoxygenase. For example, a cytosol 5-lipoxygenase of rat basophilic leukemia cells (RBL) has been widely utilized in studies on leukotriene biosynthesis. Compounds that inhibit 5-lipoxygenase decrease the levels of leukotrienes.
Effect of Compounds on Cytosol 5-Lipoxygenase of Rat Basophile Leukemia Cells
RBL-2H3 cells were grown to confluence in tissue culture flasks according to Carter et al. (J PharmExp Ther 256(3); 929-937, 1991). The cells were harvested and washed five times in calcium-and magnesium-free D-PBS. The cells were suspended at 2×10^7 /ml in 10 mM BES, 10 mM PIPES, pH 6.8, 1 mM EDTA, and then sonicated. […]
The 5-LO activity in the RBL-2H3 preparation was determined as follows: 0.1 ml reactions consisting of 0.7 mM CaCl2, 100 mM NaCl, 1 mM EDTA, 10 mM BES, 10 MM PIPES, pH 7.4, varying concentrations of test compound dissolved in DMSO (7.5% DMSO final in assay), and an amount of the RBL-2H3 preparation that will convert 15% of the arachidonic acid substrate mixture to oxygenated products (determined experimentally for each RBL-2H3 preparation), were incubated for 20 minutes at room temperature. […] The film was developed, scanned using a densitometer, and the peak areas of arachidonic acid and its product(s) are calculated. […]

PAF = PAF (Homo sapiens, UniProt P25105); details: reported in the literature; cited from earlier work
5-lipoxygenase = target: T2, 5-lipoxygenase (Homo sapiens, UniProt P09917); details: reported in the literature; cited from earlier work
T2 sequence (P09917 1-674): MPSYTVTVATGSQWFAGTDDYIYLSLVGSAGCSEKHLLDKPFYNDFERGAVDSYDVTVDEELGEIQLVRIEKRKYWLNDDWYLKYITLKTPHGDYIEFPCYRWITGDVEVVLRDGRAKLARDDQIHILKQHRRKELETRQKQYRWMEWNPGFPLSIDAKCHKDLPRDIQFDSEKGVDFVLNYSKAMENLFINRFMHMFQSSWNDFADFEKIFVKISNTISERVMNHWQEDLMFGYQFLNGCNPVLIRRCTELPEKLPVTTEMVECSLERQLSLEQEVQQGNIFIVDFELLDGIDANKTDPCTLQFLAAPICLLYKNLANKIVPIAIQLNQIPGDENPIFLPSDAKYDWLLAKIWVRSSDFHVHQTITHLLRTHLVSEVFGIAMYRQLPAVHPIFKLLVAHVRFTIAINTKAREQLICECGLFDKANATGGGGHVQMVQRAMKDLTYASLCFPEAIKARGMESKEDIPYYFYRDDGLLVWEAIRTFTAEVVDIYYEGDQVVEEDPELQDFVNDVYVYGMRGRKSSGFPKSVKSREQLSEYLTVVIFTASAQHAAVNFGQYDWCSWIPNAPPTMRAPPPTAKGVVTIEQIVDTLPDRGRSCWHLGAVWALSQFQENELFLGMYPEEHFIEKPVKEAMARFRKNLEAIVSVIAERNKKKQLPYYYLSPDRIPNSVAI

PAF, sequence (P25105 whole entry): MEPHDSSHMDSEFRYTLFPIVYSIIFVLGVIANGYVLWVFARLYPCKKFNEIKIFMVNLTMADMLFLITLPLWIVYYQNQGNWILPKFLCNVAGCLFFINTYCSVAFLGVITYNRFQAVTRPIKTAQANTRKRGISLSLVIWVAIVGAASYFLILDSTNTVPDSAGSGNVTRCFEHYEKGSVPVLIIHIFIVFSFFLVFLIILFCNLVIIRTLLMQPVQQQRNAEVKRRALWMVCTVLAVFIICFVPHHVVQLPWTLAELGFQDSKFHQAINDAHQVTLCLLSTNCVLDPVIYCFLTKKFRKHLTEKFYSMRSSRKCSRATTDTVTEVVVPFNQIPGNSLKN

## NC(=O)N(O)CCCC[C@@H]1CC[C@@H](COc2ccc(F)cc2)O1
[1]; 15 minutes
  ex vivo LTB4 % inh.: 89%
[1]; 60 minutes
  ex vivo LTB4 % inh.: 22%
[1]; 180 minutes
  ex vivo LTB4 % inh.: 36%
[2]; Homo sapiens
  IC50: 153 nM
[3]; 2 mg/k po, 900 minutes
  ex vivo LTB4 % inh.: 34%
[3]; 5 mg/k po, 900 minutes
  ex vivo LTB4 % inh.: 34%

## NC(=O)N(O)CCC#C[C@H]1CC[C@@H](COc2ccc(F)cc2)O1
[4]
  IC50: 2000 nM and 1260 nM and 1560 nM and 880 nM
[2]
  IC50: 520 nM
[2]; Homo sapiens
  IC50: 430 nM
[3]; 2 mg/k po, 60 minutes
  ex vivo LTB4 % inh.: 86%
[3]; 2 mg/k po, 360 minutes
  ex vivo LTB4 % inh.: 63%

## NC(=O)N(O)CCC#C[C@@H]1CC[C@@H](COc2ccc(F)cc2)O1
[1]; 15 minutes
  ex vivo LTB4 % inh.: 94%
[1]; 60 minutes
  ex vivo LTB4 % inh.: 86%
[1]; 180 minutes
  ex vivo LTB4 % inh.: 44%
[3]; 2 mg/k po, 60 minutes
  ex vivo LTB4 % inh.: 93%
[3]; 2 mg/k po, 360 minutes
  ex vivo LTB4 % inh.: 5%
[3]; 5 mg/k po, 900 minutes
  ex vivo LTB4 % inh.: 29%

## COc1cc([C@H]2CC[C@H](c3cc(OC)c(OC)c(OC)c3)S2)cc(OC)c1OC (relative stereo) [L-653,150, trans-2,5-bis-(3,4,5-trimethoxyphenyl)tetrahydrothiophene]
PAF
  PAF antagonism: potent PAF antagonist
5-lipoxygenase
  inhibition of 5-lipoxygenase: moderate inhibitor of 5-lipoxygenase

## NC(=O)N(O)CCCC[C@H]1CC[C@H](COc2ccc(F)cc2)O1 (single isomer, unassigned)
[2]; Homo sapiens
  IC50: 420 nM

## NC(=O)N(O)CCC#C[C@@H]1CC[C@H](COc2ccc(F)cc2)O1
[2]; Homo sapiens
  IC50: 180 nM

## NC(=O)N(O)CCC#C[C@H]1CC[C@H](COc2ccc(F)cc2)O1
[4]
  IC50: 1350 nM and 1380 nM
[2]
  IC50: 270 nM
[2]; Homo sapiens
  IC50: 150 nM
